Experimental data: US8134015B2, “Compound inhibiting in vivo phosphorous transport and medicine containing the same” (Kyowa Hakko Kirin Co., Ltd., priority 2003, dated 2012)

Target: T1, rat NaPi-2b (Rattus norvegicus, UniProt Q9JJ09)
T1 construct: expressed in transfected cells; host or cells: Xenopus oocytes injected with cRNA
T1 sequence (Q9JJ09 1-695): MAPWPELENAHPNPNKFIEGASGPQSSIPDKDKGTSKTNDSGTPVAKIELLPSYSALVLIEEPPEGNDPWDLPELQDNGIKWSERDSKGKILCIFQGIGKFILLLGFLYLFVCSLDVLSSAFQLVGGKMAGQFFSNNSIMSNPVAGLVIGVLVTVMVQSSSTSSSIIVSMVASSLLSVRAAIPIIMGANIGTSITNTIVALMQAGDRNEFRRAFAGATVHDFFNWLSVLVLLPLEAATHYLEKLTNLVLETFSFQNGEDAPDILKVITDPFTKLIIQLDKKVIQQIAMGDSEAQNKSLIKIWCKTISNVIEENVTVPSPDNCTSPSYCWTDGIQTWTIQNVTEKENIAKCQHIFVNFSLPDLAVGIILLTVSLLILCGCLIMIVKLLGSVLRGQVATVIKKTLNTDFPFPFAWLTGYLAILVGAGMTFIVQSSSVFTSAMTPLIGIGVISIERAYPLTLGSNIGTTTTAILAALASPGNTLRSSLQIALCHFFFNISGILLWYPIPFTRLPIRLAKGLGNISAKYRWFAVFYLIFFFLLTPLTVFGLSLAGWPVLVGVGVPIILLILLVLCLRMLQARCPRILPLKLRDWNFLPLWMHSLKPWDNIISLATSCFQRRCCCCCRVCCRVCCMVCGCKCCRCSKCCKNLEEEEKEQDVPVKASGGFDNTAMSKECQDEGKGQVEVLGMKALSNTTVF
Assay: Sodium-dependent phosphate uptake of Xenopus oocytes which expressed NaPi-2b (32P)
Type: cell-based
Settings: for IC50: Xenopus oocytes expressing rat NaPi-2b, 32P radioactive phosphorus, read-out: IC50 (phosphate uptake inhibitory activity); for inhibition at 300 µM: phosphate uptake, oocytes expressing rat NaPi-2b, determined from inhibition curve
Method in brief: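 Rat small-intestine NaPi-2b cRNA injected into Xenopus oocytes, expressed for 2 days. Sodium-dependent phosphate uptake measured with 32P; % inhibition at 300 and 100 μM taken from the same inhibition curve.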

Row | Structure (SMILES) | IC50 [µM] | inhibition at 300 µM [%]
1 | Cc1ccc(/C=N/NC(=O)c2cc(Cl)ccc2NC(=O)c2cccc(CSCc3ccco3)c2)cc1 [Compound 682, N-[4-Chloro-2-(4-methyl-benzylidene-hydrazinocarbonyl)-phenyl]-3-(furan-2-ylmethylsulfanylmethyl)-benzamide] | 12.5 | –
2 | COc1ccc(C(=O)Nc2ccccc2C(=O)N/N=C/c2cccc(Oc3cccc(C(F)(F)F)c3)c2)cc1OC [Compound 54, 3,4-Dimethoxy-N-{2-[3-(3-trifluoromethyl-phenoxy)-benzylidene-hydrazinocarbonyl]-phenyl}-benzamide] | 6.45 | –
3 | O=C(Nc1ccc(Br)cc1C(=O)N/N=C/c1cccc(F)c1)c1ccc(CN2CCC(N3CCCCC3)CC2)cc1 [Compound 312, 4-[1,4′]Bipiperidinyl-1′-ylmethyl-N-[4-bromo-2-(3-fluoro-benzylidene-hydrazinocarbonyl)-phenyl]-benzamide] | 3.31 | –
4 | CCN(CC)CCN(C)Cc1cccc(C(=O)Nc2ccc(OCCOCCOC)cc2C(=O)N/N=C/c2ccc(C)cc2)c1 [Compound 1034, 3-{[(2-Diethylamino-ethyl)-methyl-amino]-methyl}-N-[4-[2-(2-methoxy-ethoxy)-ethoxy]-2-(4-methyl-benzylidene-hydrazinocarbonyl)-phenyl]-benzamide] | 17.2 | –
5 | Cc1cc(/C=N/NC(=O)c2cc(Br)ccc2NC(=O)c2cccnc2)oc1C [Compound 220, N-[4-Bromo-2-(4,5-dimethyl-furan-2-ylmethylene-hydrazinocarbonyl)-phenyl]-nicotinamide] | 9.42 | –
6 | Cc1cc(C(=O)Nc2ccccc2C(=O)N/N=C/c2ccc(F)cc2)c(C)o1 [Compound 515, 2,5-Dimethyl-furan-3-carboxylic acid [2-(4-fluoro-benzylidene-hydrazinocarbonyl)-phenyl]-amide] | 1.9 | –
7 | CCN(CC)CCN(C)Cc1cccc(C(=O)Nc2ccc(OCCCCF)cc2C(=O)N/N=C/c2cccc(F)c2)c1 [Compound 1057, 3-{[(2-Diethylamino-ethyl)-methyl-amino]-methyl}-N-[2-(3-fluoro-benzylidene-hydrazinocarbonyl)-4-(4-fluoro-butoxy)-phenyl]-benzamide] | 1.26 | –
8 | O=C(Nc1ccc(Cl)cc1C(=O)N/N=C/c1ccc(F)cc1)c1ccncc1 [Compound 190, N-[4-Chloro-2-(4-fluoro-benzylidene-hydrazinocarbonyl)-phenyl]-isonicotinamide] | 20.3 | –
9 | Cc1csc(C(=O)N/N=C/c2cccc(F)c2)c1NC(=O)c1cccc(CSc2nc[nH]n2)c1 [Compound 524, N-[2-(3-Fluoro-benzylidene-hydrazinocarbonyl)-4-methyl-thiophen-3-yl]-3-(1H-[1,2,4]triazol-3-ylsulfanylmethyl)-benzamide] | – | 42.8
10 | O=C(Nc1ccc(Cl)cc1C(=O)N/N=C/c1cccc(F)c1)c1cnc2ccccc2n1 [Compound 1004, Quinoxaline-2-carboxylic acid [4-chloro-2-(3-fluoro-benzylidene-hydrazinocarbonyl)-phenyl]-amide] | – | 34.2
11 | Cc1ccc(/C=N/NC(=O)c2ccccc2NC(=O)c2ccncc2)cc1 [Compound 137, N-[2-(4-Methyl-benzylidene-hydrazinocarbonyl)-phenyl]-isonicotinamide] | 3 | –
12 | O=C(Nc1ccc(Br)cc1C(=O)N/N=C/c1ccc(Cl)c(C(F)(F)F)c1)c1ccc(CN2CCN(CCO)CC2)cc1 [Compound 321, N-[4-Bromo-2-(4-chloro-3-trifluoromethyl-benzylidene-hydrazinocarbonyl)-phenyl]-4-[4-(2-hydroxy-ethyl)-piperazin-1-ylmethyl]-benzamide] | 2.66 | –

Results, then the molecule that gave them:

Row | IC50 [µM] | inhibition at 300 µM [%] | Structure (SMILES)
13 | 0.92 | – | COc1ccc(NC(=O)c2cccc(CSCC(O)CO)c2)c(C(=O)N/N=C/c2ccc(C)cc2)c1 (stereo not drawn) [Compound 1018, 3-(2,3-Dihydroxy-propylsulfanylmethyl)-N-[4-methoxy-2-(4-methyl-benzylidene-hydrazinocarbonyl)-phenyl]-benzamide]
14 | 25.4 | – | COc1ccc(C(=O)Nc2ccccc2C(=O)N/N=C/c2ccc(O)c(O)c2)cc1OC [Compound 26, N-[2-(3,4-Dihydroxy-benzylidene-hydrazinocarbonyl)-phenyl]-3,4-dimethoxy-benzamide]
15 | – | 34.2 | COc1ccc(/C=N/NC(=O)c2cc(Br)ccc2NC(=O)c2ccc(CN3CCN(c4ccccn4)CC3)cc2)cc1 [Compound 777, N-[4-Bromo-2-(4-methoxy-benzylidene-hydrazinocarbonyl)-phenyl]-4-(4-pyridin-2-yl-piperazin-1-ylmethyl)-benzamide]
16 | < 3 | – | COc1ccc(C(=O)Nc2ccc(I)cc2C(=O)N/N=C/c2ccc(F)cc2)cc1OC [Compound 205, N-[2-(4-Fluoro-benzylidene-hydrazinocarbonyl)-4-iodo-phenyl]-3,4-dimethoxy-benzamide]
17 | 2.76 | – | Cc1ccc(/C=N/NC(=O)c2cc(Br)ccc2NC(=O)c2ccc(CN3CCC(N4CCCCC4)CC3)cc2)cc1C [Compound 308, 4-[1,4′]Bipiperidinyl-1′-ylmethyl-N-[4-bromo-2-(3,4-dimethyl-benzylidene-hydrazinocarbonyl)-phenyl]-benzamide]
18 | – | 30.7 | COc1ccc(C(=O)Nc2ccc(Cl)cc2C(=O)N/N=C/c2ccccn2)cc1OC [Compound 244, N-[4-Chloro-2-(pyridin-2-ylmethylene-hydrazinocarbonyl)-phenyl]-3,4-dimethoxy-benzamide]
19 | 10.4 | – | C=CCOc1ccc(/C=N/NC(=O)c2ccccc2NC(=O)c2ccc(OC)c(OC)c2)cc1 [Compound 52, N-[2-(4-Allyloxy-benzylidene-hydrazinocarbonyl)-phenyl]-3,4-dimethoxy-benzamide]
20 | 8.31 | – | O=C(Nc1cscc1C(=O)N/N=C/c1ccc(Cl)c(C(F)(F)F)c1)c1cccc(CN2CCN(CCO)CC2)c1 [Compound 983, N-[4-(4-Chloro-3-trifluoromethyl-benzylidene-hydrazinocarbonyl)-thiophen-3-yl]-3-[4-(2-hydroxy-ethyl)-piperazin-1-ylmethyl]-benzamide]
21 | – | 84.1 | COc1ccc(/C=N/NC(=O)c2cc(Br)ccc2NC(=O)c2ccc(CNCCN3CCOCC3)cc2)cc1 [Compound 715, N-[4-Bromo-2-(4-methoxy-benzylidene-hydrazinocarbonyl)-phenyl]-4-[(2-morpholin-4-yl-ethylamino)-methyl]-benzamide]
22 | 3.84 | – | Cc1ccc(/C=N/NC(=O)c2c(C)csc2NC(=O)c2cccc(CN3CCC(CO)CC3)c2)cc1 [Compound 600, 3-(4-Hydroxymethyl-piperidin-1-ylmethyl)-N-[4-methyl-3-(4-methyl-benzylidene-hydrazinocarbonyl)-thiophen-2-yl]-benzamide]
23 | 1.95 | – | COc1ccc(C(=O)Nc2ccccc2C(=O)N/N=C/c2ccc(F)c(Cl)c2)cc1OC [Compound 32, N-[2-(3-Chloro-4-fluoro-benzylidene-hydrazinocarbonyl)-phenyl]-3,4-dimethoxy-benzamide]
24 | – | 53.5 | Cc1ccc(/C=N/NC(=O)c2cc(Br)ccc2NC(=O)c2ccc(CN3CCN(c4ccc(F)cc4)CC3)cc2)cc1C [Compound 717, N-[4-Bromo-2-(3,4-dimethyl-benzylidene-hydrazinocarbonyl)-phenyl]-4-[4-(4-fluoro-phenyl)-piperazin-1-ylmethyl]-benzamide]
25 | 97 | – | O=C(Nc1ccc(Cl)cc1C(=O)N/N=C/c1cccc(F)c1)c1cccc(CSCCS(=O)(=O)O)c1 [Compound 691, 2-{3-[4-Chloro-2-(3-fluoro-benzylidene-hydrazinocarbonyl)-phenylcarbamoyl]-benzylsulfanyl}-ethanesulfonic acid]
26 | 7.15 | – | COc1ccc(C(=O)Nc2ccccc2C(=O)N/N=C/c2ccccc2C)cc1OC [Compound 3, 3,4-Dimethoxy-N-[2-(2-methyl-benzylidene-hydrazinocarbonyl)-phenyl]-benzamide]
27 | 0.35 | – | CCN(CC)CCN(C)Cc1cccc(C(=O)Nc2ccc(Cl)cc2C(=O)N/N=C/c2ccc(F)cc2)c1 [Compound 380, N-[4-Chloro-2-(4-fluoro-benzylidene-hydrazinocarbonyl)-phenyl]-3-{[(2-diethylamino-ethyl)-methyl-amino]-methyl}-benzamide]
28 | 3.25 | – | CCN(CC)CCN(C)Cc1ccc(C(=O)Nc2ccc(Br)cc2C(=O)NN=Cc2ccc(OC)cc2)cc1 [Compound 290, N-[4-Bromo-2-(4-methoxy-benzylidene-hydrazinocarbonyl)-phenyl]-4-{[(2-diethylamino-ethyl)-methyl-amino]-methyl}-benzamide]
29 | 4.38 | – | COc1ccc(C(=O)Nc2ccccc2C(=O)N/N=C/c2cccc(F)c2)cc1 [Compound 47, N-[2-(3-Fluoro-benzylidene-hydrazinocarbonyl)-phenyl]-4-methoxy-benzamide]
30 | 2.63 | – | Cc1ccc(/C=N/NC(=O)c2c(C)csc2NC(=O)c2cccc(CSc3nc[nH]n3)c2)cc1 [Compound 552, N-[4-Methyl-3-(4-methyl-benzylidene-hydrazinocarbonyl)-thiophen-2-yl]-3-(1H-[1,2,4]triazol-3-ylsulfanylmethyl)-benzamide]
